Measurements taken from ChEMBL document CHEMBL1137836, “Identification of a potent and rapidly reversible inhibitor of the 20S-proteasome” (Bioorg Med Chem Lett, 2004).

Test system: Proteasome
Experiment: Concentration required for reversal inhibition of 20S-proteasome
Format: subcellular

Row | SMILES | IC50
1 | CC[C@H](NC(=O)[C@H](Cc1ccccc1)N1CC[C@](NC(=O)OCc2ccccc2)(C(C)C)C1=O)B(O)O | 30 nM
2 | CC[C@H](NC(=O)[C@H](CC1CCCCC1)N1CC[C@](NS(=O)(=O)c2cccc(C)c2)(C(C)C)C1=O)B(O)O | 30 nM
3 | Cc1cccc(S(=O)(=O)N[C@]2(C(C)C)CCN([C@@H](CC3CCCCC3)C(=O)N[C@@H](CC(C)C)B(O)O)C2=O)c1 | 8 nM
4 | CC[C@H](NC(=O)[C@H](CC1CCCCC1)N1CC[C@](NC(=O)OCc2ccccc2)(C(C)C)C1=O)B(O)O | 30 nM
5 | Cc1cccc(S(=O)(=O)N[C@]2(C(C)C)CCN([C@@H](CC3CCCCC3)C(=O)N[C@H](B(O)O)C(C)C)C2=O)c1 | 28 nM
6 | CC[C@H](NC(=O)[C@H](C)N1CC[C@](NC(=O)OCc2ccccc2)(C(C)C)C1=O)B(O)O | 1000 nM
